Experiments:
[1] = target: T1, Aβ40 (amyloid beta 40) fibrils (Homo sapiens, UniProt P05067); assay: fluorescence titration of […] probe with fibrils; format: binding
T1 construct: gene APP; Aβ40 fibrils

[2] = target: T2, Aβ42 (amyloid beta 42) fibrils (Homo sapiens, UniProt P05067); assay: fluorescence titration of […] probe with fibrils; format: binding
T2 construct: gene APP; Aβ42 fibrils
T2 sequence (P05067 672-713 limits assumed): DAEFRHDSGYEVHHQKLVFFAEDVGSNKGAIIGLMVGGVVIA

T1 sequence (P05067 672-711 limits assumed): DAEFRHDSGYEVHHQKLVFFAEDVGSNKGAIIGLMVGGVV

- Kd [1]: 6.27 µM
- Kd [2]: 3.78 µM
Structure (SMILES): CN(C)c1ccc(-c2ccc3cc(-c4nc5ccccc5s4)c(=N)oc3c2)cc1 [ICTAD-1]

Reference: PMC8159352, “Differentiating Aβ40 and Aβ42 in amyloid plaques with a small molecule fluorescence probe” (Chemical Science, 2020)
